Experimental data: PMC12608155, “Discovery of Potential Antileishmanial Compounds Through Phenotypic Screening of an Alkaloid Library” (Molecules, 2025)
Like-named read-outs stand apart in the source and are kept apart here.

How the values were obtained:
[1] = system: RAW 264.7; experiment: Cytotoxicity in RAW 264.7 cells (alamarBlue, 72 h); conditions: read-out: CC50 RAW 264.7; 72 h, alamarBlue
Protocol: (§1) To this end, we calculated SIs from 16 preselected results from the ex vivo system. With this aim, dose–response curves were performed in duplicate across at least three independent experiments using RAW 264.7 mouse macrophages (as a model of host cells harboring amastigotes) and HepG2 (as a model for assessing systemic toxicity).
(§2) To evaluate the safety of the selected compounds, two cell lines were employed: RAW 264.7 (a mouse macrophage-derived cell line) and HepG2 (a human hepatoma cell line). Furthermore, to determine the intestinal tolerance relevant to potential oral administration, mouse intestinal organoids were prepared.
(§3) RAW 264.7 and HepG2 were routinely cultured under standard conditions. RAW 264.7 cells were maintained in RPMI medium (Gibco) supplemented with, 25 mM HEPES, 24 mM NaHCO3, 2 mM L-glutamine, mixture of antibiotics and 10% FBS. HepG2 cells were cultured in DMEM/F-12 (Gibco) and supplemented 10% of FBS. For cytotoxicity assays, 10,000 cells per well were seeded into 96-well plates and incubated overnight at 37 °C with 5% of CO2. Subsequently, 2-fold serial dilutions of the compounds were added and incubated for 72 h. Cell viability using the alamarBlue™ assay according to the manufacturer’s instructions, and fluorescence was measured with a Varioskan™ LUX microplate reader (ThermoFisher Scientific, Waltham, MA, USA). Non-linear regression analyses were performed using SigmaPlot^TM software (version 10.0) to calculate CC50. Data were obtained from at least three independent experiments performed in duplicate.

[2] = system: L. donovani IRFP intramacrophagic amastigotes; experiment: Dose-response assay on ex vivo infected splenic explants (intramacrophagic amastigotes); format: cell-based, Leishmania donovani; conditions: read-out: EC50 Intramacrophagic Amastigotes
[3] = system: L. donovani IRFP axenic amastigotes; experiment: Dose-response assay on axenic amastigotes; format: cell-based, Leishmania donovani
Protocol: The objective of the present study was to identify new antileishmanial drug candidates by screening a commercial library of plant-derived alkaloids using a platform based on axenic amastigotes of L. donovani IRFP—the causative agent of VL—genetically modified to emit infrared fluorescence during their viable stage (hereafter referred to as L. donovani IRFP). To this end, single-dose assays at 10 μM and 1 μM, as well as dose–response assays, were performed. Compounds showing significant activity in the initial screening were subsequently clustered according to chemical structure using the DataWarrior tool, and representative compounds were further evaluated in dose response assays against axenic amastigotes.
Female Balb/c mice aged from 6 to 8 weeks were intraperitoneally inoculated with 1.5 × 10^9 infective L. donovani IRFP metacyclic promastigotes. Between 8 and 12 weeks after infection, mice were humanely euthanised and bone marrow was collected from the femurs and tibias of both hind limbs. The bones were cut at both ends, and prewarmed PBS was flushed through the medullary cavity using a syringe fitted with a 27G needle, to extract the bone marrow cells. The resulting cell suspension was filtered through a 100 µm cell strainer and centrifuged at 2500 rpm for 10 min at room temperature. To obtain free amastigotes, the pelleted cells were resuspended within a 75 mL ventilated flask in amastigote culture medium (15 mM KCl; 136 mM KH2PO4; 10 mM K2HPO4.3H2O; 0.5 mM MgSO4.7 H2O; 24 mM NaHCO3; 22 mM glucose; 1 mM glutamine, 1x RPMI 1640 vitamin mix (Sigma-Aldrich, Merck, Darmstadt, Germany), 10 mM folic acid, […], 1x RPMI amino acid mix (Sigma-Aldrich, Merck, Darmstadt, Germany), […], antibiotic mixture, 25 mM MES, 10% FBS (Gibco, ThermoFisher Scientific, Waltham, MA, USA) and incubated at 37 °C in a humidified atmosphere containing 5% CO2 [46].
The efficacy of the selected compounds was assessed by measuring near-infrared fluorescence (700 nm) using an Odyssey Infrared Imaging System (Li-Cor, Lincoln, NE, USA) following the previously described protocols.

[4] = system: mouse intestinal organoids; experiment: Tolerance of mouse intestinal organoids (alamarBlue); format: cell-based; conditions: for CC50: 72 h incubation, Figure S4
Source text: (§4) Mouse intestinal organoids were generated following protocols standardized previously. Briefly, to obtain adult intestine stem cells, C57BL/6 mice were humanely euthanized. A section of the duodenum was excised, rinsed in ice-cold PBS, and cut into small pieces for gentle dissociation using Gentle Cell Dissociation Reagent. Tissue fragments enriched in duodenal crypts and little tissue debris were microscopically selected and resuspended in a 1:1 mixture of Geltrex™ and IntestiCult™ Mouse Medium (Gibco, ThermoFisher Scientific, Waltham, MA, USA /Stemcell Technologies^TM, Vancouver, BC, Canada). Aliquots of 50 µL of this suspension were dispensed into the center of each well of a prewarmed 24-well plate to form domes containing organoids, which were then incubated to allow matrix polymerization. Then, […] of IntestiCult™ Mouse Medium was added to each well. The plate was incubated at 37 °C in a humidified atmosphere containing 5% CO2, and the culture medium was refreshed every 48 h. During this period, organoids continued to proliferate, and passaging was performed at a 1:4 ratio every 7–10 days.
(§5) To determine the in vitro tolerance to oral administration of the active compounds, a 384-well assay was adapted from the protocol described by Du and co-workers. Briefly, following medium removal, organoids were collected from the extracellular matrix using the same procedure as for passaging. The resulting pellet was resuspended in 3.2 mL of a 1:1 mixture of Geltrex™ LDEV-Free Reduced Growth Factor Basement Membrane Matrix (without phenol red, Gibco) and IntestiCult™ Mouse Medium. Using a chilled pipette dispenser, 8 µL of the organoid suspension was dispensed into pre-cooled 384-well plates, which were then gently agitated to evenly distribute the matrix. The plates were incubated at 37 °C for 10 min and then, 32 µL of IntestiCult™ Mouse Medium was added to each well. To prevent edge effects, 100 µL of sterile water was added to the perimeter wells. After 3 days of culture, 10 µL per well of the test compounds dissolved in IntestiCult™ Mouse Medium were added. Positive (0.03% H2O2) and negative (0.2% DMSO) controls were included in each assay. After 72 h of incubation, 5 µL of alamarBlue™ HS were added to each well, and fluorescence was measured after 24 h using a Varioskan™ LUX microplate reader. All assays were conducted in triplicate and repeated in at least three independent experiments.

[5] = system: L. donovani IRFP axenic amastigotes; experiment: Primary single-concentration screening on axenic amastigotes, growth inhibition at 72 h; format: cell-based, Leishmania donovani; conditions: axenic amastigotes; for Growth Inhibition (%) at 72h, 1 µM_Exp1 / Growth Inhibition (%) at 72h, 1 µM_Exp2 / inhibition at 1 µM: 1 µM; for Growth Inhibition (%) at 72h, 10 µM_Exp1 / Growth Inhibition (%) at 72h, 10 µM_Exp2 / inhibition at 10 µM: 10 µM; for inhibition at 1 µM / inhibition at 10 µM: Leishmania donovani
[6] = system: HepG2; experiment: Cytotoxicity in HepG2 cells (alamarBlue, 72 h); conditions: read-out: CC50 HepG2; 72 h, alamarBlue
Protocol: as §1, §2, §3

[7] = Cytotoxicity in RAW 264.7 cells (alamarBlue, 72 h); conditions: mouse
Protocol: as §1, §2, §3

[8] = Tolerance of mouse intestinal organoids (alamarBlue); format: cell-based; conditions: C57BL/6, mouse
Source text: as §4, §5

[9] = Cytotoxicity in HepG2 cells (alamarBlue, 72 h); conditions: human
Protocol: as §1, §2, §3

[10] = system: axenic amastigotes of L. amazonensis; set-up: method as in PMID 25029171; conditions: compared with glucantime; cited from earlier work
[11] = system: Leishmania amazonensis; set-up: method as in PMID 25029171; conditions: cited from earlier work
[12] = primary cultures of infected mouse splenocytes
[13] = Leishmania donovani, Splenocyte, primary cultures of infected mouse splenocytes

Compound	CC50 [1]	EC50 [2, 12]	IC50 [3]	CC50 [4]	Growth Inhibition (%) at 72h, 1 µM_Exp1 ([5]; experiment 1, 72 h)	Growth Inhibition (%) at 72h, 1 µM_Exp2 ([5]; experiment 2, 72 h)	Growth Inhibition (%) at 72h, 10 µM_Exp1 ([5]; experiment 1, 72 h)	Growth Inhibition (%) at 72h, 10 µM_Exp2 ([5]; experiment 2, 72 h)	CC50 [6]	EC50 [2, 13]	IC50 ([3]; Leishmania donovani)	CC50 at 72 h [7]	CC50 at 72 h [9]	further results
COc1ccc2c(C)c3[n+](cc2c1OC)CCc1cc2c(cc1-3)OCO2 [13-Methylberberine]	> 10 µM	750 ± 20 nM	500 ± 40 nM	> 10 µM	58.33%	69.84%	86.05%	98.60%	28.3 ± 9.18 µM					
COc1ccc2c(c1OC)C(OC)N(C)c1c-2ccc2cc3c(cc12)OCO3 (stereo not drawn) [Angoline]	5.28 ± 0.28 µM	1150 ± 40 nM	120 ± 10 nM	12.6 ± 0.6 µM	83.55%	85.33%	100.85%	100.07%	5.15 ± 0.21 µM					Toxicity in mouse intestinal organoids (tolerance for oral administration) ([4]; in words): significant toxicity
COc1ccc2cc3[n+](cc2c1OC)CCc1cc2c(cc1-3)OCO2 [Berberine]										1760 ± 60 nM	570 ± 80 nM			CC50 at 72 h ([7]; RAW 264.7 macrophage cells): > 20 µM; CC50 at 72 h ([8]; mouse intestinal organoids (from duodenal crypts), 72 h incubation, Figure S4, read-out: CC50 mouse intestinal organoids): > 25 µM; CC50 at 72 h ([9]; HepG2 hepatoma cells): > 20 µM
COc1ccc2c(c[n+](C)c3c4cc5c(cc4ccc23)OCO5)c1OC [Chelerythrine]										1610 ± 50 nM	80 ± 10 nM	5.51 ± 0.16 µM	5.5 ± 0.64 µM	in vitro IC50 values against axenic amastigotes of L. amazonensis [10]: very similar to those of glucantime; antileishmanial effect in vivo [11]: moderate; inhibition at 1 µM ([5]; experiment 1, 72 h, read-out: Growth Inhibition (%) at 72h, 1 µM_Exp1): 97.2%; inhibition at 1 µM ([5]; experiment 2, 72 h, read-out: Growth Inhibition (%) at 72h, 1 µM_Exp2): 95.7%; inhibition at 10 µM ([5]; experiment 1, 72 h, read-out: Growth Inhibition (%) at 72h, 10 µM_Exp1): 100%; inhibition at 10 µM ([5]; experiment 2, 72 h, read-out: Growth Inhibition (%) at 72h, 10 µM_Exp2): 101%
c1c2c(cc3c1OCO3)-c1cc3ccc4c(c3c[n+]1CC2)OCO4 [Coptisine]											2850 ± 250 nM	> 10 µM	> 10 µM	EC50 ([2]; Leishmania donovani, Splenocyte, in Mus musculus): 3390 ± 230 nM; CC50 at 72 h [8]: > 25 µM
